# Measurements published in publication PMC9225785, “Design, synthesis, and biological evaluation of a novel series of 2-(2,6-dioxopiperidin-3-yl)isoquinoline-1,3(2H,4H)-dione derivatives as cereblon modulators” (Journal of Enzyme Inhibition and Medicinal Chemistry, 2022).
# Where two headings read alike, the source gives them in different places.
# Experiments:
# [1] = test system: TNF-α; test: TNF-α ELISA assay in LPS stimulated PBMC; type: cell-based, human; conditions: read-out: IC50 (μM ± SD) TNF-α
# Procedure: Previous studies have reported IMiDs stimulate immunomodulatory activity main through the TNF-α inhibition[9]^,[10]. In this test, the effect of the synthesised compounds on TNF-α in LPS stimulated human peripheral blood mononuclear cell (PBMC) was evaluated (Table 1). The SAR of TNF-α inhibition was similar to the antiproliferative activity. […]
# PBMC (4 × 10^5 cells) were incubated in the 96-well culture plate and stimulated by 2 µg/mL LPS. The level of TNF-α was checked by standard ELISA (R&D Systems, Minneapolis, MN). Analysis was performed by following the manufacture’s procedure for each ELISA kit. The test samples were assessed in triplicate and absorbance was taken on a Microplate Reader (ELx-800, BioTek Instruments, Winooski, VT) at 450 nm. The IC50 value for each compound was calculated by comparison with standard curves with purified recombinant TNF-α using GraphPad Prism 5.0 software (San Diego, CA).
# [2] = PBMC toxicity by CCK8; type: cell-based, human; conditions: human, PBMCs isolated from healthy donors, CCK-8, 20.0 µM, relative to control cells; read-out: PBMC cell viability (%)
# Procedure: (§1) And same time, the toxicity of the compounds on the normal human cell line PBMC was also tested by CCK8.
# (§2) The NCI-H929 cells were cultured in RPMI-1640 media supplemented with 10% FBS, 100 U/mL penicillin–100 µg/mL streptomycin, and 0.05 mM 2-mercaptoethanol. The U2932 cells were cultured in RPMI-1640 media supplemented with 10% FBS and 100 U/mL penicillin–100 µg/mL streptomycin. The PBMCs were isolated from healthy donors.
# (§3) For the cell proliferation experiments, 1.0 × 10^5 cells were first seeded in the 96-well culture plate and incubated overnight. Compounds tested were serially diluted in the corresponding media and then added to the well of 96-well plate in a final volume of 100 µL and then the cells were incubated for 72 h at 37 °C. Finally, 10 µL of CCK-8 was added to each well for 1–4 h, and the absorbance values were read at 450 nm in a Microplate Reader (ELx-800, BioTek Instruments, Winooski, VT). The IC50 value for each compound was calculated at the basis of the number of viable cells using GraphPad Prism 5.0 software (San Diego, CA).
# [3] = test system: U2932 cells; test: CCK8 antiproliferative assay, U2932; conditions: Homo sapiens, U2932, 72 h, read-out: IC50 (μM ± SD) U2932
# [4] = test system: NCI-H929 cells; test: CCK8 antiproliferative assay, NCI-H929; conditions: Homo sapiens, NCI-H929, 72 h, read-out: IC50 (μM ± SD) NCI-H929
# [5] = test system: PBMC; test: PBMC toxicity by CCK8; type: cell-based, human
# Procedure: as §1, §2, §3
# [6] = biological target: T1, CRBN (His-tagged CRBN-DDB1 complex) (Homo sapiens, UniProt Q96SW2); test: TR-FRET CRBN binding assay (displacement of Cy5-labeled thalidomide)
# T1 construct: purchased Abcam ab235611
# Procedure: His-tagged CRBN-DDB1 complex (Abcam, Cambridge, UK, catalogue no. ab235611) 60 nM was mixed with Eu-anti-His Tag antibody 3 nM (Thermo Fisher, Waltham, MA, catalogue no. PV5596) in a final buffer containing 20 mM HEPES pH 7.0, 150 mM NaCl, and 0.005% Tween-20. The solution was then mixed with Cy5-labeled thalidomide 10 nM and various concentrations of compounds, and then was incubated at room temperature for 1 h. FRET signals were measured on an EnVision plate reader by exciting at 340 nm and recording emission at both 615 nm (no FRET control) and 665 nm (FRET signals) with a 60 µs delay. […] Quantitative loss of FRET efficiency as a function of compound concentrations was fitted by GraphPad Prism 5.0 (San Diego, CA) and calculated the IC50.
# [7] = test system: NCI-H929 cells; test: Annexin V-FITC/PI apoptosis assay; type: cell-based; conditions: for B1: necrotic cells / B2: late apoptosis / B3: live cells / B4: early apoptosis: 72 h; for apoptotic events: 72 h (early + late apoptosis)
# Procedure: The IMiDs were reported to induce apoptosis through activation of caspase 8 in MM cells. Accordingly, the ability of the selected compound 10a to induce apoptosis in NCI-H929 cells was investigated using annexin V fluorescein isothiocyanate (FITC)/propidium iodide (PI) staining assay.
# (§4) Flow cytometry was used to analyse effects of the compounds tested on cell cycle (PI staining) and apoptosis (Annexin V-FITC and PI staining). Stained cells were analysed on a Flow Cytometer (BD Biosciences, Franklin Lakes, NJ), and the data were analysed using the Cell Quest software.
# [8] = test system: NCI-H929 cells; test: Cell cycle analysis (PI staining, flow cytometry); type: cell-based; conditions: 48 h; for cell cycle arrest: NCI-H929, 0.5-5.0 µM
# Procedure: The NCI-H929 cells were treated with each of the compounds at 0, 0.5, 1.0, and 5.0 µM for 48 h. Following this treatment, the PI-stained cells were analysed and the results are outlined in Figure 5.
# as §4
# [9] = biological target: T2, IKZF1 (Homo sapiens, UniProt Q13422+Q96SW2); test: Immunoblot analysis of IKZF1 degradation in NCI-H929 cells; type: cell-based; conditions: for IKZF1 degradation: 72 h, immunoblot
# T2 construct: endogenous in cells; host or cells: NCI-H929
# Procedure: (§5) Subsequent proteasome degradation of these transcription factors kills MM cells. Accordingly, we used the immunoblot assay to measure the IKZF1 and IKZF3 proteins degradation in the current study.
# (§6) For immunoblot analysis, NCI-H929 cells were treated with the tested compounds at the indicated concentrations for various times, collected, and lysed in RIPA buffer in the presence of protease inhibitors on ice for 30 min. The protein from each sample was quantitated using a BCA protein assay kit, and was separated by SDS-PAGE and then transferred onto the PVDF membrane. The membranes were probed with specific primary antibodies at 4 °C overnight, followed by incubation with IRDye®680 goat anti-mouse secondary antibodies. The signals were acquired using the Odyssey Infrared Imaging System (LI-COR, Lincoln, NE).
# [10] = biological target: T3, IKZF3 (Homo sapiens, UniProt Q96SW2+Q9UKT9); test: Immunoblot analysis of IKZF3 degradation in NCI-H929 cells; type: cell-based; conditions: for IKZF3 degradation: 72 h, immunoblot
# T3 construct: endogenous in cells; host or cells: NCI-H929
# Procedure: as §5, §6
# [11] = TNF-α level in LPS stimulated human PBMC, ELISA
# [12] = NCI-H929, indicated concentrations
# [13] = NCI-H929, 100 nM bortezomib in combination with compound 10a (10 µM)
# T2 sequence (Q13422 whole entry): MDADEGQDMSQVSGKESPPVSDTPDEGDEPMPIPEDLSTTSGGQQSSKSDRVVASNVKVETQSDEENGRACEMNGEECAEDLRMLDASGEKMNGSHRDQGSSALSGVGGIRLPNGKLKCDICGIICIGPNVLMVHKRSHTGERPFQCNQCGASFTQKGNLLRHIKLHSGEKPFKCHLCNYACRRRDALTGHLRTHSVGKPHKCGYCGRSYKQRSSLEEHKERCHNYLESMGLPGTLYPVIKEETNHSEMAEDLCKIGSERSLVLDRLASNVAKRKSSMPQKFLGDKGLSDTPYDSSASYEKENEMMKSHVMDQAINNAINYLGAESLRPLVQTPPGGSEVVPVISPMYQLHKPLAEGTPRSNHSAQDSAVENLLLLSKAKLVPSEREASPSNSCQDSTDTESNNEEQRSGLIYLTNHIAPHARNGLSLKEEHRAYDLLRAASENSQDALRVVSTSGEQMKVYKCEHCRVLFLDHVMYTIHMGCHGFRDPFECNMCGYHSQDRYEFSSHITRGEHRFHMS
# T2 sequence (Q96SW2 whole entry): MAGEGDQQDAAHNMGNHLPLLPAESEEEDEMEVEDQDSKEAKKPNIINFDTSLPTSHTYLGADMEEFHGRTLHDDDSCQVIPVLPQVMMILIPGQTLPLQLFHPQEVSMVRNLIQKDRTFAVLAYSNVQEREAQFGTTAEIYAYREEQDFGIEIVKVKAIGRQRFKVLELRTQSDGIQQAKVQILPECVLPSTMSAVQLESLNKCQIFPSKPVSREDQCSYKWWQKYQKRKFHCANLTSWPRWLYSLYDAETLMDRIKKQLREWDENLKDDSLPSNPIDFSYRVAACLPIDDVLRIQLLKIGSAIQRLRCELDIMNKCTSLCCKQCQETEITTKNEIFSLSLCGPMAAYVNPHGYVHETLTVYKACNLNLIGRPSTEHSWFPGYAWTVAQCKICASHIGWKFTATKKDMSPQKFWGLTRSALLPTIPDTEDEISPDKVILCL
# T2 sequence (Q16531 whole entry partner): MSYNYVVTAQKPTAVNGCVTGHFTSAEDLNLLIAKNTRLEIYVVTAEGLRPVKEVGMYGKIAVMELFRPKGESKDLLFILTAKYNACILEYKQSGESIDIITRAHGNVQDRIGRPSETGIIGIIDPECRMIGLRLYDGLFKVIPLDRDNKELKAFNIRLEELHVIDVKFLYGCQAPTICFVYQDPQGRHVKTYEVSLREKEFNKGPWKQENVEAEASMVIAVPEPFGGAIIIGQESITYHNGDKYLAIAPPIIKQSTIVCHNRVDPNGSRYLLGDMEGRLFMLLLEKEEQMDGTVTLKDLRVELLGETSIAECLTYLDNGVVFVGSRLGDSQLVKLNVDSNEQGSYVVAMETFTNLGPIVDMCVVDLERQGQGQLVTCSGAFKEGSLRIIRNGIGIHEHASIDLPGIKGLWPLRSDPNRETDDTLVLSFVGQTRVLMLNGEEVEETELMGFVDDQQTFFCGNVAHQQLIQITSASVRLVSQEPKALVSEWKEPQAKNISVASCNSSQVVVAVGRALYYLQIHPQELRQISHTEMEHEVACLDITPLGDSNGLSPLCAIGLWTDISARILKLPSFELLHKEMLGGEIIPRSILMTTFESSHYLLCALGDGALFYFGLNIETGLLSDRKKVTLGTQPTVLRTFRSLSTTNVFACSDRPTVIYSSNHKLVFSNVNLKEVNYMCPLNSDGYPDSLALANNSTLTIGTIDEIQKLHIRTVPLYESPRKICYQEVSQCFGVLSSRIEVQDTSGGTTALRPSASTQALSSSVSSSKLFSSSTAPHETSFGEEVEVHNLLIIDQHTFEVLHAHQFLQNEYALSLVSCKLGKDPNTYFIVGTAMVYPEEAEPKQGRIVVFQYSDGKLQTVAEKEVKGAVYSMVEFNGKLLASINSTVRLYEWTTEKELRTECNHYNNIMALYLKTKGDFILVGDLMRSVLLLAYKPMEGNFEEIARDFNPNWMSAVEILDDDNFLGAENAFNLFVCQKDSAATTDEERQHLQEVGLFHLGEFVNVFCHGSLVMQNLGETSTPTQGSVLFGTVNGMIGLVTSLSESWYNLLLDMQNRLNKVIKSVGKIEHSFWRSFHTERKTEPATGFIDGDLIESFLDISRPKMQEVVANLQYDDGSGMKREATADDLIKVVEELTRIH
# T3 sequence (Q9UKT9 whole entry): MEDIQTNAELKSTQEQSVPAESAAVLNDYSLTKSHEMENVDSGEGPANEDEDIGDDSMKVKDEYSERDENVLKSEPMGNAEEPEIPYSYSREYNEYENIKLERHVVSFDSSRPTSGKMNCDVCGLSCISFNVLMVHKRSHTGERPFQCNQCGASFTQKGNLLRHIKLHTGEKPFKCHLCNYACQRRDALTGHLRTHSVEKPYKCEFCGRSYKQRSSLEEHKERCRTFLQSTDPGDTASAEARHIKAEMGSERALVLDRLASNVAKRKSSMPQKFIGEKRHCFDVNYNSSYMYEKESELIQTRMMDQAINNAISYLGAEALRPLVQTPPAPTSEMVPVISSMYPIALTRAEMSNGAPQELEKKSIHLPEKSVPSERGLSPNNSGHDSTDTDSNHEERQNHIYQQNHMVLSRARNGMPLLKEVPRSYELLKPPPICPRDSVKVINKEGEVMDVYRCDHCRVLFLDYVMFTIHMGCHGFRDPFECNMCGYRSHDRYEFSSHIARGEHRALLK
# T3 sequence (Q96SW2 whole entry): as the sequence (Q96SW2 whole entry) above
# T3 sequence (Q16531 whole entry partner): as the sequence (Q16531 whole entry partner) above
# T1 sequence (Q96SW2 whole entry): as the sequence (Q96SW2 whole entry) above
# T1 sequence (Q16531 whole entry partner): as the sequence (Q16531 whole entry partner) above
smiles,measurement,setting,value
"O=C1CCC(N2C(=O)Cc3ccccc3C2=O)C(=O)N1 (stereo not shown) [Compound 3a, 2-(2,6-dioxopiperidin-3-yl)isoquinoline-1,3(2H,4H)-dione]",IC50,[1]; [11],> 50 µM
same,"viability at 72 h, 20 µM",[2],99%
same,IC50,[3],> 50 µM
same,IC50,[4],32.2 ± 1.42 µM
"COc1ccc2c(c1)C(=O)N(C1CCC(=O)NC1=O)C(=O)C2 (stereo not shown) [Compound 3b, 2-(2,6-Dioxopiperidin-3-yl)-7-methoxyisoquinoline-1,3(2H,4H)-dione]",IC50,[1]; [11],43.8 ± 1.88 µM
same,"viability at 72 h, 20 µM",[2],98%
same,IC50,[3],36.4 ± 1.22 µM
same,IC50,[4],28.2 ± 0.92 µM
"COc1ccc2c(c1)C(=O)N(C1CCC(=O)NC1=O)C(=O)C2(C)C (stereo not shown) [Compound 3c, 2-(2,6-Dioxopiperidin-3-yl)-7-methoxy-4,4-dimethylisoquinoline-1,3(2H,4H)-dione]",IC50,[1]; [11],> 50 µM
same,"viability at 72 h, 20 µM",[2],100%
same,IC50,[3],> 50 µM
same,IC50,[4],> 50 µM
"O=C1CCC(N2C(=O)Cc3cccc([N+](=O)[O-])c3C2=O)C(=O)N1 (stereo not shown) [Compound 9a, 2-(2,6-dioxopiperidin-3-yl)-8-nitroisoquinoline-1,3(2H,4H)-dione]",IC50,[1]; [11],5.48 ± 1.04 µM
same,"viability at 72 h, 20 µM",[2],94%
same,IC50,[3],12.2 ± 0.58 µM
same,IC50,[4],9.26 ± 0.56 µM
"Nc1cccc2c1C(=O)N(C1CCC(=O)NC1=O)C(=O)C2 (stereo not shown) [Compound 10a, 8-amino-2-(2,6-dioxopiperidin-3-yl)isoquinoline-1,3(2H,4H)-dione]",IC50,[1]; [11],0.76 ± 0.08 µM
same,"viability at 72 h, 20 µM",[2],94%
same,toxicity to normal human cell line PBMC,"[5]; CCK8, 20 µM",nearly no toxicity
same,PBMC cell viability (%),"[5]; CCK-8, 20.0 µM, relative to control cells, 20 µM",99%
same,IC50,[6],4.83 µM
same,B1: necrotic cells,"[7]; NCI-H929, 1 μM",0.1%
same,B2: late apoptosis,"[7]; NCI-H929, 1 μM",15.6%
same,B3: live cells,"[7]; NCI-H929, 1 μM",70.4%
same,B4: early apoptosis,"[7]; NCI-H929, 1 μM",13.9%
same,apoptotic events,"[7]; NCI-H929, 1 µM",29.5%
same,B1: necrotic cells,"[7]; NCI-H929, 5 μM",0.2%
same,B2: late apoptosis,"[7]; NCI-H929, 5 μM",21.3%
same,B3: live cells,"[7]; NCI-H929, 5 μM",65.1%
same,B4: early apoptosis,"[7]; NCI-H929, 5 μM",13.3%
same,apoptotic events,"[7]; NCI-H929, 5 µM",34.6%
same,cells in G0/G1 cell cycle,"[8]; NCI-H929, 5.0 µM",42.9%
same,cell cycle arrest,[8],induce G0/G1 cell cycle arrest
same,IKZF1 degradation,"[9]; NCI-H929, 10 µM",completely degrade
same,IKZF1 degradation,[9]; [12],induced the degradation
same,IKZF3 degradation,"[10]; NCI-H929, 10 µM",completely degrade
same,IKZF3 degradation,[10]; [12],induced the degradation
same,IC50,[3],5.86 ± 0.12 µM
same,IC50,[4],2.25 ± 0.09 µM
"Nc1ccc2c(c1)C(=O)N(C1CCC(=O)NC1=O)C(=O)C2 (stereo not shown) [Compound 10b, 7-Amino-2-(2,6-dioxopiperidin-3-yl)isoquinoline-1,3(2H,4H)-dione]",IC50,[1]; [11],21.3 ± 1.26 µM
same,"viability at 72 h, 20 µM",[2],98%
same,IC50,[3],20.6 ± 0.82 µM
same,IC50,[4],16.3 ± 0.56 µM
"Nc1ccc2c(c1)CC(=O)N(C1CCC(=O)NC1=O)C2=O (stereo not shown) [Compound 10c, 6-Amino-2–(2,6-dioxopiperidin-3-yl)isoquinoline-1,3(2H,4H)-dione]",IC50,[1]; [11],38.5 ± 1.38 µM
same,"viability at 72 h, 20 µM",[2],100%
same,IC50,[3],26.3 ± 0.76 µM
same,IC50,[4],18.7 ± 0.83 µM
"Nc1cccc2c1CC(=O)N(C1CCC(=O)NC1=O)C2=O (stereo not shown) [Compound 10d, 5-Amino-2–(2,6-dioxopiperidin-3-yl)isoquinoline-1,3(2H,4H)-dione]",IC50,[1]; [11],> 50 µM
same,"viability at 72 h, 20 µM",[2],99%
same,IC50,[3],> 50 µM
same,IC50,[4],> 50 µM
"CC1(C)C(=O)N(C2CCC(=O)NC2=O)C(=O)c2c(N)cccc21 (stereo not shown) [Compound 12a, 8-Amino-2–(2,6-dioxopiperidin-3-yl)-4,4-dimethylisoquinoline-1,3(2H,4H)-dione]",IC50,[1]; [11],> 50 µM
same,"viability at 72 h, 20 µM",[2],100%
same,IC50,[3],> 50 µM
same,IC50,[4],> 50 µM
"Nc1cccc2c1C(=O)N(C1CCC(=O)NC1=O)C(=O)C21CC1 (stereo not shown) [Compound 12b, 8′-Amino-2′-(2,6-dioxopiperidin-3-yl)-1′H-spiro[cyclopropane-1,4′-isoquinoline]-1′,3′(2′H)-dione]",IC50,[1]; [11],> 50 µM
same,"viability at 72 h, 20 µM",[2],100%
same,IC50,[3],> 50 µM
same,IC50,[4],> 50 µM
"Nc1cccc2c1CN(C1CCC(=O)NC1=O)C2=O (stereo not shown) [Lenalidomide, reference compound]",IC50,"[1]; Homo sapiens, PBMC",0.13 ± 0.02 µM
same,"viability at 72 h, 20 µM",[2],86%
same,B1: necrotic cells,"[7]; NCI-H929, 1 μM",0.2%
same,B2: late apoptosis,"[7]; NCI-H929, 1 μM",18.1%
same,B3: live cells,"[7]; NCI-H929, 1 μM",68.6%
same,B4: early apoptosis,"[7]; NCI-H929, 1 μM",13.1%
same,apoptotic events,"[7]; NCI-H929, 1 µM",31.2%
same,B1: necrotic cells,"[7]; NCI-H929, 5 μM",0.1%
same,B2: late apoptosis,"[7]; NCI-H929, 5 μM",20.8%
same,B3: live cells,"[7]; NCI-H929, 5 μM",56.0%
same,B4: early apoptosis,"[7]; NCI-H929, 5 μM",23.1%
same,apoptotic events,"[7]; NCI-H929, 5 µM",43.9%
same,cell cycle arrest,[8],induce G0/G1 cell cycle arrest
same,IC50,[3],3.24 ± 0.11 µM
same,IC50,[4],1.12 ± 0.06 µM
"CC(C)C[C@H](NC(=O)[C@H](Cc1ccccc1)NC(=O)c1cnccn1)B(O)O [bortezomib, reference compound]",effect on IKZF1 degradation induced by compound 10a,[9]; [13],can block the degradation
same,effect on IKZF3 degradation induced by compound 10a,[10]; [13],can block the degradation
